# Test results: patent US12303500B2, “Method for improving stability of low-concentration atropine ophthalmic preparation” (SHENYANG XINGQI PHARMACEUTICAL CO., LTD., priority 2018, dated 2025)
# Where a name gives a salt, the structure may show the parent alone. Read-outs that look alike come from different tables or passages of the source.
# Conditions: 40°C±2°C, RH 75%±5%
# Source text: In the chromatogram of the sample solution, the chromatographic peaks with peak area smaller than 0.5 times of the main peak area of the control solution should be ignored.
smiles,measurement,setting,value
"CN1[C@@H]2CC[C@H]1C[C@@H](OC(=O)C(CO)c1ccccc1)C2 (stereo partly drawn) [Example 160903-P01, atropine sulfate]",Content,0th month,100.3%
same,Hyoscyamine,0th month,+0.002°
same,Moisture,0th month,3.15%
same,Content,1st month,100.3%
same,Hyoscyamine,1st month,+0.002°
same,Moisture,1st month,3.24%
same,Content,2nd month,100.2%
same,Hyoscyamine,2nd month,+0.001°
same,Moisture,2nd month,2.97%
same,Content,3rd month,100.4%
same,Hyoscyamine,3rd month,0.000°
same,Moisture,3rd month,3.49%
same,Content,6th month,100.3%
same,Hyoscyamine,6th month,0.000°
same,Moisture,6th month,3.69%
